This note sets out measurements from a polymer gas permeability compilation.

For `*C(=C(*)c1ccc2c(c1)C(C)(C)c1ccccc1-2)c1cc(F)cc(F)c1` (repeat unit), the CH4 permeability was determined as 4200 Barrer, the CO2 permeability was found to be 9200 Barrer, the H2 permeability is 5000 Barrer and the N2 permeability amounted to 1700 Barrer. The same compound showed an O2 permeability of 2700 Barrer.

With `*C(=C(*)c1ccc2c(c1)C(C)(C)c1ccccc1-2)c1ccc(Br)cc1` (repeat unit), the CH4 permeability was found to be 9300 Barrer, the CO2 permeability worked out at 17000 Barrer, the H2 permeability was 8700 Barrer and the N2 permeability is 3500 Barrer. The compound further had an O2 permeability of 5000 Barrer.

For `*C(=C(*)c1ccc2c(c1)C(C)(C)c1ccccc1-2)c1ccc(C(C)(C)C)cc1` (repeat unit), the CH4 permeability is 6600 Barrer, the CO2 permeability amounted to 11000 Barrer, the H2 permeability is 6300 Barrer and the N2 permeability is 2500 Barrer. For the same compound, the O2 permeability was found to be 3500 Barrer.

As to `*C(=C(*)c1ccc2c(c1)C(C)(C)c1ccccc1-2)c1ccc(F)cc1` (repeat unit), the CH4 permeability stood at 11000 Barrer, the CO2 permeability is 21000 Barrer, the H2 permeability was determined as 11000 Barrer and the N2 permeability was 4700 Barrer. Further, the O2 permeability was 6200 Barrer.

`*C(=C(*)c1ccc2c(c1)C(C)(C)c1ccccc1-2)c1ccc([Si](C)(C)C)cc1` (repeat unit) had a CH4 permeability of 525 Barrer, a CO2 permeability of 1900 Barrer, an H2 permeability of 1040 Barrer and an N2 permeability of 200 Barrer. In addition, the O2 permeability amounted to 455 Barrer.

Compound `*c1ccc(-c2ccc(-n3c(=O)c4cc5oc6cc7c(cc6oc5cc4c3=O)C3(CC(C)(C)c4cc5oc6cc8c(=O)n(*)c(=O)c8cc6oc5cc43)CC7(C)C)cc2C(F)(F)F)c(C(F)(F)F)c1` (repeat unit) had a CH4 permeability of 20 Barrer, a CO2 permeability of 420 Barrer, an H2 permeability of 300 Barrer and an N2 permeability of 16 Barrer. The compound further displayed an O2 permeability of 64 Barrer.

For the compound `*c1ccc(-c2ccc(C(*)(c3ccccc3)C(F)(F)F)cc2)cc1` (repeat unit), the CH4 permeability was 10 Barrer, the CO2 permeability stood at 166 Barrer, the H2 permeability worked out at 114 Barrer and the N2 permeability was determined as 6.6 Barrer. This compound displayed an O2 permeability of 25 Barrer.

Compound `*c1ccc(-c2ccc(N3C(=O)c4ccc(-c5ccc6c(c5)C(=O)N(*)C6=O)cc4C3=O)c(O)c2)cc1O` (repeat unit) registered a CH4 permeability of 0.00041 Barrer, a CO2 permeability of 0.0313 Barrer, an N2 permeability of 0.001 Barrer and an O2 permeability of 0.0096 Barrer.

As for `*c1ccc(-c2ccc(Oc3ccc(C4(c5ccc(Oc6ccc(-c7ccc(N8C(=O)c9ccc(C(c%10ccc%11c(c%10)C(=O)N(*)C%11=O)(C(F)(F)F)C(F)(F)F)cc9C8=O)cc7)cc6C(F)(F)F)cc5)c5ccccc5C(=O)N4c4ccccc4)cc3)c(C(F)(F)F)c2)cc1` (repeat unit), the CH4 permeability was found to be 1.01 Barrer, the CO2 permeability is 53.9 Barrer, the N2 permeability was 1.71 Barrer and the O2 permeability is 10.2 Barrer.

`*c1ccc(-c2ccc(Oc3ccc4c(c3)C3(CC4(C)C)CC(C)(C)c4ccc(Oc5ccc(-c6ccc(N7C(=O)c8ccc(C(c9ccc%10c(c9)C(=O)N(*)C%10=O)(C(F)(F)F)C(F)(F)F)cc8C7=O)cc6)cc5C(F)(F)F)cc43)c(C(F)(F)F)c2)cc1` (repeat unit) yielded a CH4 permeability of 1.21 Barrer, a CO2 permeability of 53 Barrer, an N2 permeability of 3.35 Barrer and an O2 permeability of 36.1 Barrer.

`*c1ccc(-c2ccc(Oc3ccc4c(c3)C3(CC4(C)C)CC(C)(C)c4ccc(Oc5ccc(-c6ccc(N7C(=O)c8ccc(Oc9ccc(C(C)(C)c%10ccc(Oc%11ccc%12c(c%11)C(=O)N(*)C%12=O)cc%10)cc9)cc8C7=O)cc6)cc5C(F)(F)F)cc43)c(C(F)(F)F)c2)cc1` (repeat unit) displayed a CH4 permeability of 0.35 Barrer, a CO2 permeability of 23.9 Barrer, an N2 permeability of 1.02 Barrer and an O2 permeability of 9.92 Barrer.

In turn, `*c1ccc(-c2nnc(-c3ccc(N4C(=O)c5ccc(C(c6ccc7c(c6)C(=O)N(*)C7=O)(C(F)(F)F)C(F)(F)F)cc5C4=O)cc3)o2)cc1` (repeat unit) yielded a CH4 permeability of 0.25 Barrer, a CO2 permeability of 15.6 Barrer and an N2 permeability of 0.61 Barrer.

Consider `*c1ccc(C(C)(C)c2ccc(-n3c(=O)c4cc5c(=O)n(*)c(=O)c5cc4c3=O)cc2)cc1` (repeat unit), for which the CH4 permeability is 0.901 Barrer, the CO2 permeability was 26.9 Barrer, the H2 permeability worked out at 17 Barrer and the N2 permeability was found to be 1.5 Barrer. The compound further gave an O2 permeability of 7.1 Barrer.

`*c1ccc(C(C)(C)c2cccc(N3C(=O)c4ccc(C(c5ccc6c(c5)C(=O)N(*)C6=O)(C(F)(F)F)C(F)(F)F)cc4C3=O)c2)cc1` (repeat unit): the CH4 permeability came out at 0.217 Barrer, the CO2 permeability is 10.7 Barrer, the H2 permeability is 38.2 Barrer and the N2 permeability turned out to be 0.473 Barrer. This compound registered an O2 permeability of 2.89 Barrer.

`*c1ccc(C(c2ccc(-c3nc4cc(C(c5ccc6oc(*)nc6c5)(C(F)(F)F)C(F)(F)F)ccc4o3)cc2)(C(F)(F)F)C(F)(F)F)cc1` (repeat unit) gave a CH4 permeability of 176 Barrer, a CO2 permeability of 4540 Barrer, an H2 permeability of 3900 Barrer and an N2 permeability of 300 Barrer. The O2 permeability worked out at 1150 Barrer.

In turn, `*c1ccc(C(c2ccc(N3C(=O)c4ccc(C(=O)c5ccc6c(c5)C(=O)N(*)C6=O)cc4C3=O)cc2)(C(F)(F)F)C(F)(F)F)cc1` (repeat unit) displayed a CH4 permeability of 0.191 Barrer, a CO2 permeability of 17.5 Barrer, an H2 permeability of 30.8 Barrer and an N2 permeability of 0.375 Barrer. The O2 permeability is 2.18 Barrer.

`*c1ccc(C)c(-c2cc(C)c(-c3cc(*)ccc3C)cc2C)c1` (repeat unit) returned a CH4 permeability of 1.9 Barrer, a CO2 permeability of 62 Barrer, an H2 permeability of 100 Barrer and an N2 permeability of 2.4 Barrer. This compound also returned an O2 permeability of 12 Barrer.

For `*c1ccc(C2(c3ccc(*)cc3)OC(=O)c3ccccc32)cc1` (repeat unit), the CH4 permeability worked out at 2.88 Barrer, the CO2 permeability was 72 Barrer, the H2 permeability amounted to 74 Barrer and the N2 permeability is 2.39 Barrer. Besides, the O2 permeability came out at 11 Barrer.

`*c1ccc(C2(c3ccc(N4C(=O)c5ccc(C(c6ccc7c(c6)C(=O)N(*)C7=O)(C(F)(F)F)C(F)(F)F)cc5C4=O)cc3)c3cc(C(C)(C)C)ccc3-c3ccc(C(C)(C)C)cc32)cc1` (repeat unit): the CH4 permeability came to 14.6 Barrer, the CO2 permeability is 271 Barrer and the N2 permeability stood at 14.1 Barrer.

Compound `*c1ccc(C2(c3ccc(N4C(=O)c5ccc(C(c6ccc7c(c6)C(=O)N(*)C7=O)(C(F)(F)F)C(F)(F)F)cc5C4=O)cc3)c3ccccc3-c3ccccc32)cc1` (repeat unit) showed a CH4 permeability of 1.96 Barrer, a CO2 permeability of 58.9 Barrer and an N2 permeability of 3.3 Barrer.

On to `*c1ccc(Cc2ccc(N3C(=O)c4cc(Oc5ccccc5)c(-c5cc6c(cc5Oc5ccccc5)C(=O)N(*)C6=O)cc4C3=O)cc2)cc1` (repeat unit), for which the CH4 permeability came out at 0.85 Barrer, the CO2 permeability was determined as 29 Barrer, the N2 permeability came out at 0.73 Barrer and the O2 permeability was 3.36 Barrer.

`*c1ccc(Cc2ccc(N3C(=O)c4ccc(-c5ccc6c(c5)C(=O)N(*)C6=O)cc4C3=O)c(C)c2)cc1C` (repeat unit) gave a CH4 permeability of 0.0278 Barrer, a CO2 permeability of 1.41 Barrer, an N2 permeability of 0.0483 Barrer and an O2 permeability of 0.369 Barrer.

Compound `*c1ccc(Cc2ccc(N3C(=O)c4ccc(-c5ccc6c(c5)C(=O)N(*)C6=O)cc4C3=O)c(Cl)c2)cc1Cl` (repeat unit) came in with a CH4 permeability of 0.0164 Barrer, a CO2 permeability of 0.978 Barrer, an N2 permeability of 0.0307 Barrer and an O2 permeability of 0.26 Barrer.

The compound `*c1ccc(Cc2ccc(N3C(=O)c4ccc(-c5ccc6c(c5)C(=O)N(*)C6=O)cc4C3=O)cc2Br)c(Br)c1` (repeat unit) gave a CH4 permeability of 0.0054 Barrer, a CO2 permeability of 0.315 Barrer, an N2 permeability of 0.0103 Barrer and an O2 permeability of 0.0923 Barrer.

For `*c1ccc(Cc2ccc(N3C(=O)c4ccc(-c5ccc6c(c5)C(=O)N(*)C6=O)cc4C3=O)cc2F)c(F)c1` (repeat unit), the CH4 permeability amounted to 0.0129 Barrer, the CO2 permeability was found to be 0.542 Barrer, the N2 permeability turned out to be 0.0203 Barrer and the O2 permeability was found to be 0.143 Barrer.

As for `*c1ccc(Cc2ccc(N3C(=O)c4ccc(C(c5ccc6c(c5)C(=O)N(*)C6=O)(C(F)(F)F)C(F)(F)F)cc4C3=O)c(C)c2)cc1C` (repeat unit), the CH4 permeability was found to be 0.198 Barrer, the CO2 permeability worked out at 8.75 Barrer, the N2 permeability turned out to be 0.406 Barrer and the O2 permeability is 2.51 Barrer.

`*c1ccc(Cc2ccc(N3C(=O)c4ccc(C(c5ccc6c(c5)C(=O)N(*)C6=O)(C(F)(F)F)C(F)(F)F)cc4C3=O)c(Cl)c2)cc1Cl` (repeat unit): the CH4 permeability was determined as 0.121 Barrer, the CO2 permeability came out at 6.78 Barrer, the N2 permeability stood at 0.269 Barrer and the O2 permeability was 1.81 Barrer.

`*c1ccc(Cc2ccc(N3C(=O)c4ccc(C(c5ccc6c(c5)C(=O)N(*)C6=O)(C(F)(F)F)C(F)(F)F)cc4C3=O)cc2)cc1` (repeat unit) showed a CH4 permeability of 0.344 Barrer, a CO2 permeability of 15.2 Barrer, an H2 permeability of 44.7 Barrer and an N2 permeability of 0.686 Barrer. The same compound returned an O2 permeability of 3.88 Barrer.

In turn, `*c1ccc(N2C(=O)c3ccc([Si](C)(C)c4ccc5c(c4)C(=O)N(*)C5=O)cc3C2=O)cc1` (repeat unit) displayed a CH4 permeability of 0.064 Barrer, a CO2 permeability of 2.75 Barrer, an H2 permeability of 9.4 Barrer and an N2 permeability of 0.105 Barrer. Besides, the O2 permeability was 0.6 Barrer.

`*c1ccc(Oc2cc3c(cc2C)OC2(CC3(C)C)CC(C)(C)c3cc(Oc4ccc(*)cc4)c(C)cc3O2)cc1` (repeat unit) displayed a CH4 permeability of 0.77 Barrer, a CO2 permeability of 29.3 Barrer, an N2 permeability of 1.33 Barrer and an O2 permeability of 6.17 Barrer.
